Assay results reported in patent US20090238852A1, “METHODS FOR CONTROLLING INTRACELLULAR CALCIUM LEVELS ASSOCIATED WITH AN ISCHEMIC EVENT” (University of Utah Research Foundation, priority 2008, published 2009).
Read-outs that look alike come from different tables or passages of the source.

Key:
anti-Xa = details: product of the procedure of U.S. Pat. No. 5,990,097; cited from earlier work
[1] = test system: rabbit ventricular myocytes; assay: [Na^+]i in paced myocytes exposed to ATX, no metabolic inhibition; assay type: cell-based; details: FIG. 9
Method: In these studies, intracellular calcium concentration [Ca^++]i was measured by flow cytometry. Measurement of isolated mouse and rabbit ventricular myocyte [Ca^2+]i and [Na^+]i by flow cytometry has been described (Zhang et al., J. Cardiovasc. Pharmacol. 51: 443-449 (2008); Li et al., J. Mol. Cell. Cardiol. 33: 2145-2155 (2001)). [Ca^++]i was measured with the Ca^++ sensitive fluorescent probe, Fluo 3-AM (Molecular Probes, Eugene, Oreg.), using a FACScan (Becton-Dickinson, MA). The cells were exposed to 4 μmol/L Fluo-3 AM for 30 min at 37° C. The cells were then separated into aliquots. […] Metabolic ischemia was accomplished by incubating cells in a glucose-free MKRBB solution (pH 7.40) containing 2 mmol/L sodium cyanide (NaCN) to impair mitochondrial and glycolytic generation of ATP. To reproduce the situation in the beating ischemic heart, during the period of metabolic ischemia, myocytes were placed in a 5-well chamber with equal volumes of myocyte suspensions from the same heart dissociation placed in each well. The chamber was water bathed to maintain temperature at 37° C. and bubbled with 5% CO2 in air to keep myocytes in suspension. Each well was fitted with platinum sheet electrodes on both sides for field stimulation. One chamber was constructed with a glass coverslip bottom so that myocytes can be observed microscopically to assess capture threshold. Placing electrodes were connected in series to a constant current pulse generator that delivers a 0.2 ampere pulse at 0.5 Hz. […] Approximately 2×10^3 myocytes were analyzed to calculate average emission fluorescence intensity in each sample. […] Only those cells with low fluorescence intensity at 670 nm (PI-negative cells or viable cells) were included in the comparative analysis of [Ca^++]i. The sample [Ca^2+]i values were calculated by Mn^2+ quenching (Sugishita et al, 2001) and [Na^+]i values by comparison with a standard curve of varied [Na^+]i versus Na Green fluorescence. […] Results were expressed as means±SEM. […]

[2] = test system: platelets with HIT antibody; assay: Serotonin release assay (SRA) with HIT-positive serum; details: ODSH added with heparin to the HIT antibody
Method: Two techniques were employed to measure platelet activation in response to heparin or 2-O desulfated heparin in the presence of HIT-reactive serum.
The first technique was the serotonin release assay (SRA), considered the gold standard laboratory test for HIT, and performed as described by Sheridan (Sheridan D, et al. Blood 67:27-30, 1986). Washed platelets were loaded with ^14C serotonin (^14C-hydroxy-tryptamine-creatine sulfate, Amersham), and then incubated with various concentrations of test heparin or heparin analog in the presence of serum from known HIT-positive patients as a source of antibody. Activation was assessed as ^14C serotonin release from platelets during activation, with ^14C serotonin quantitated using a liquid scintillation counter. […] Activated platelets are defined as percent isotope release of ≧20%.
The initial 3 ml (milliliters) of whole blood in the first syringe was discarded. The anticoagulated blood was centrifuged (80×g (gravity), 15 min, room temperature) to obtain platelet rich plasma (PRP). […] EDTA was added to stop the reaction, and the mixture was centrifuged to pellet the platelets. ^14C-serotonin released into the supernatant was measured on a scintillation counter. Maximal release was measured following platelet lysis with 10% Triton X-100. […]

[3] = in vivo
Method: A study was performed in 38 volunteer human subjects to assess the safety of escalating bolus doses of 2-O, 3-O desulfated heparin (ODSH). The study was a Phase I, randomized, double-blind, dose-escalation study with a single-day treatment period. Subjects were between the ages of 18 and 45, were not pregnant, and were normal in body weight. They all had normal coagulation function and hemoglobin values at baseline.
Two subjects also received an injection of fully anticoagulated unfractionated heparin for comparison. ODSH dose groups were run in a series, and safety and tolerance data were evaluated prior to the start of the next dose level (4, 8 12, 16 and 20 mg/kg bolus intravenous doses). Twenty eight (28) subjects randomly received ODSH and 9 subjects were randomized to receive placebo, with an additional two subjects receiving commercially available unfractionated heparin.
For each bolus dose, ODSH as a 50 mg/mL formulation was diluted with normal saline and a total volume of 50 ml was infused over 15 minutes containing the calculated amount of ODSH the subject was to receive. Placebo consisted of 50 mL of normal saline infused over 15 minutes. For subjects receiving heparin, 5,000 units (approximately 0.5 mg/kg) of heparin was diluted into 50 ml of normal saline and infused over 15 minutes.
Immediately before infusion and beginning 7 minutes after the start of each infusion, blood was drawn at periodic times for 24 hours to monitor the effect of infusion on the following laboratory studies: activated partial thromboplastin time (aPTT); prothrombin time (PT); activated clotting time (ACT); and ODSH plasma level. Serum chemistries and a complete blood count were checked immediately before infusion and at eight (8) and twenty-four (24) hours later. Using values for aPTT and ODSH levels, pharmacokinetic parameters were calculated by noncompartmental methods using a commercial software program (PhAST 2.3-001). The following pharmacokinetic parameters were calculated: • a) Maximum measured plasma concentration (Cmax); • b) First-order terminal elimination rate constant (Kel), calculated from a semi-log plot of the serum concentration versus time curve; this parameter was calculated by linear least-square regression analysis using the maximum number of points in the terminal log-linear phase (e.g., 3 or more non-zero serum concentrations); • c) Time of the maximum measured drug plasma concentration (tmax); • d) The area under the plasma concentration versus time curve from time 0 to the last observation (AUC 0-t), calculated by the linear trapezoidal method; • e) The area under the plasma concentration versus time curve from time 0 to infinity (AUCinf), which was calculated as the sum of AUC 0-t plus the ratio of the last measurable serum concentration to the elimination rate constant; • f) First-order terminal elimination (t1/2), calculated as 0.693/Kel; • g) Total body clearance (CL), calculated as Dose/AUCinf, and • h) Total volume of distribution (Vdss), calculated as MRT×CL.

Substance: 2-O, 3-O desulfated heparin [ODSH]
- anti-Xa anti-coagulant activity (anti-Xa): less than 10 U/mg
- effect on ATX-induced increase in [Na^+]i ([1]; ODSH 100 ug/ml with ATX 10 nM): almost completely inhibited
- effect on [Na^+]i in the absence of ATX ([1]; ODSH 100 ug/ml, HEPES + pacing alone): reduced [Na^+]i in myocytes in the absence of ATX but to a much smaller extent
- effect on heparin-induced platelet activation [2]: prevented heparin from causing platelet activation
- Mean clearance values, range over the dose groups ([3]; human, iv): 0.172 to 0.257 mL/min/kg
- Mean elimination half-life values, range over the dose groups ([3]; human, iv): 1.93 to 2.72 h
- Median tmax values, range over the dose groups ([3]; human, iv): 0.37 to 0.88 h
- AUC 0-t ([3]; human, iv, 4 mg/kg): 307.2 µg·h/mL
- AUCinf ([3]; human, iv, 4 mg/kg): 415.2 µg·h/mL
- CL ([3]; human, iv, 4 mg/kg): 0.1709 ± 0.064973 mL/min/kg
- Cmax ([3]; human, iv, 4 mg/kg): 130.76 µg/mL
- MRT ([3]; human, iv, 4 mg/kg): 3.780 ± 1.6710 h
- Vdss ([3]; human, iv, 4 mg/kg): 0.03495 ± 0.011679 L/kg
- t1/2 ([3]; human, iv, 4 mg/kg): 2.585 ± 1.1225 h
- tmax ([3]; human, iv, 4 mg/kg): 0.47 h
- AUC 0-t ([3]; human, iv, 8 mg/kg): 461.9 µg·h/mL
- AUCinf ([3]; human, iv, 8 mg/kg): 629.2 µg·h/mL
- CL ([3]; human, iv, 8 mg/kg): 0.2147 ± 0.039202 mL/min/kg
- Cmax ([3]; human, iv, 8 mg/kg): 163.74 µg/mL
- MRT ([3]; human, iv, 8 mg/kg): 2.775 ± 0.6087 h
- Vdss ([3]; human, iv, 8 mg/kg): 0.03513 ± 0.00658 L/kg
- t1/2 ([3]; human, iv, 8 mg/kg): 1.933 ± 0.4537 h
- tmax ([3]; human, iv, 8 mg/kg): 0.37 h
- AUC 0-t ([3]; human, iv, 12 mg/kg): 619.1 µg·h/mL
- AUCinf ([3]; human, iv, 12 mg/kg): 1086.5 µg·h/mL
- CL ([3]; human, iv, 12 mg/kg): 0.1867 ± 0.036203 mL/min/kg
- Cmax ([3]; human, iv, 12 mg/kg): 179.28 µg/mL
- MRT ([3]; human, iv, 12 mg/kg): 3.894 ± 0.9516 h
- Vdss ([3]; human, iv, 12 mg/kg): 0.04212 ± 0.00317 L/kg
- t1/2 ([3]; human, iv, 12 mg/kg): 2.724 ± 0.6667 h
- tmax ([3]; human, iv, 12 mg/kg): 0.88 h
- AUC 0-t ([3]; human, iv, 16 mg/kg): 886.9 µg·h/mL
- AUCinf ([3]; human, iv, 16 mg/kg): 1075.8 µg·h/mL
- CL ([3]; human, iv, 16 mg/kg): 0.25607 ± 0.067503 mL/min/kg
- Cmax ([3]; human, iv, 16 mg/kg): 285.38 µg/mL
- MRT ([3]; human, iv, 16 mg/kg): 3.287 ± 1.0560 h
- Vdss ([3]; human, iv, 16 mg/kg): 0.04725 ± 0.007944 L/kg
- t1/2 ([3]; human, iv, 16 mg/kg): 2.261 ± 0.8548 h
- tmax ([3]; human, iv, 16 mg/kg): 0.50 h
- AUC 0-t ([3]; human, iv, 20 mg/kg): 1322.1 µg·h/mL
- AUCinf ([3]; human, iv, 20 mg/kg): 1638.7 µg·h/mL
- CL ([3]; human, iv, 20 mg/kg): 0.20877 ± 0.003483 mL/min/kg
- Cmax ([3]; human, iv, 20 mg/kg): 366.73 µg/mL
- MRT ([3]; human, iv, 20 mg/kg): 3.639 ± 0.6670 h
- Vdss ([3]; human, iv, 20 mg/kg): 0.04556 ± 0.008256 L/kg
- t1/2 ([3]; human, iv, 20 mg/kg): 2.637 ± 0.4765 h
- tmax ([3]; human, iv, 20 mg/kg): 0.50 h
- ODSH plasma levels produced [3]: > 300 µg/mL
